From patent US20040019429A1, “Methods and systems for analyzing complex biological systems” (priority 2001, published 2004)
Entries after “also recorded” stand apart in the source; their conditions may differ.

Legend:
[1] = test system: Arabidopsis thaliana; experiment: MOA1 gene expression profiling (arrays of 22,000 Arabidopsis genes); conditions: for Gene expression perturbation (in words): MOA1, one-hour time point; for No. of Lethal Genes Altered: altered genes identified as essential for plant growth in internal database
[2] = test system: Arabidopsis thaliana; experiment: MOA1 biochemical (metabolite) profiling by LC-MS and GC-MS; conditions: 20 minutes and 1 hour after spraying
[3] = test system: Arabidopsis thaliana plants; experiment: SOA1 phenotypic analysis of herbicide-treated plants (MIC, Tmic, leaf traits, symptom class); type: in vivo; conditions: for Characteristic symptoms of treated plants (in words): SOA1 phenotypic analysis; for leafCurling (Dev.) / leafTwisting (Dev.) / leafWidth (Dev.) / matureLeafAnthocyanins (Dev.) / matureLeafChlorosis (Dev.) / matureLeafNecrosis (Dev.) / newLeafAnthocyanins (Dev.) / newLeafChlorosis (Dev.) / newLeafNecrosis (Dev.) / pointedLeaves (Dev.): numeric value standardized to mock treated plants; for leafCurling (Dev.) / leafTwisting (Dev.) / leafWidth (Dev.) / matureLeafAnthocyanins (Dev.) / matureLeafChlorosis (Dev.) / matureLeafNecrosis (Dev.) / newLeafAnthocyanins (Dev.) / newLeafChlorosis (Dev.) / newLeafNecrosis (Dev.) / pointedLeaves (Dev.) / tMic (Dev.): SOA1; for tMic (Dev.): score for time to full range of symptoms at the MIC
[4] = test system: Magnaporthe grisea; type: cell-based
[5] = test system: Saccharomyces cerevisiae wild type strain BY4743; experiment: AF1 yeast metabolite analysis by GC-MS and LC-MS after antifungal drug treatment; type: cell-based; conditions: for Fold Change, phosphoenolpyruvate: metabolite phosphoenolpyruvate; for Fold Change, thymine: metabolite thymine; for Fold Change, urocanic acid: metabolite urocanic acid; for Fold Change, zeatin: metabolite zeatin
[6] = 1 hr, p < 0.5, number of genes of 22,000

For O=C(O)c1ccccc1C(=O)Nc1cccc2ccccc12 [Naptalam], the “Regulated Genes Following Herbicide Treatment: Down” value [1, 6] was 47, the “Regulated Genes Following Herbicide Treatment: Up” value [1, 6] was 50 and the “Gene expression perturbation (in words)” value [1] was “fewest gene expression perturbations”. The “No. of Lethal Genes Altered” value ([1]; 1 hr) was 3.

In the case of CC(C)C1(C)N=C(c2ncccc2C(=O)O)NC1=O (stereo not shown) [Imazapyr], the “Regulated metabolites relative to control (in words)” value [2] is reported as “Only a few, if any, stress-related metabolites were observed” and the “Characteristic symptoms of treated plants (in words)” value (“Characteristic symptoms” for short) [3] is reported as “anthocyanin accumulation in the older leaves accompanied by chlorosis of the newly emerging leaves”.

With O=C(O)c1cc(Oc2ccc(C(F)(F)F)cc2Cl)ccc1[N+](=O)[O-] [Acifluorfen] the “Characteristic symptoms” value [3] was “Necrotic leaf flecks”.

CN(C)C(=O)Nc1ccc(Cl)c(Cl)c1 [Diuron] was tested, and the “Characteristic symptoms” value [3] was “rapid and widespread leaf necrosis”, the “leafCurling (Dev.)” value [3] was 1 and the “leafTwisting (Dev.)” value [3] was 0. For the same compound, the “leafWidth (Dev.)” value [3] was −2, the “matureLeafAnthocyanins (Dev.)” value [3] was 0 and the “matureLeafChlorosis (Dev.)” value [3] was 2. The “matureLeafNecrosis (Dev.)” value [3] was 4, the “newLeafAnthocyanins (Dev.)” value [3] was “newLeafAnthocyanins 0” and the “newLeafChlorosis (Dev.)” value [3] was 2. For the same compound, the “newLeafNecrosis (Dev.)” value [3] was 4, the “pointedLeaves (Dev.)” value [3] was 1 and the “tMic (Dev.)” value [3] was 1.

In the case of CC(C)N1C(=O)c2ccccc2NS1(=O)=O [Bentazon], the “Characteristic symptoms” value [3] is reported as “rapid and widespread leaf necrosis”.

In the case of C[n+]1ccc(-c2cc[n+](C)cc2)cc1 [Paraquat], the “Characteristic symptoms” value [3] is reported as “rapid and widespread leaf necrosis”, the “leafCurling (Dev.)” value [3] is reported as 2 and the “leafTwisting (Dev.)” value [3] is reported as 0. The “leafWidth (Dev.)” value [3] was −1, the “matureLeafAnthocyanins (Dev.)” value [3] was 0 and the “matureLeafChlorosis (Dev.)” value [3] was 1. The “matureLeafNecrosis (Dev.)” value [3] was 4, the “newLeafAnthocyanins (Dev.)” value [3] was 0 and the “newLeafChlorosis (Dev.)” value [3] was 1. The “newLeafNecrosis (Dev.)” value [3] was 4, the “pointedLeaves (Dev.)” value [3] was 1 and the “tMic (Dev.)” value [3] was 2.

With O=C(O)CNCP(=O)(O)O [Glyphosate] the “Growth of M. grisea on various nitrogen sources, Tier 4” value [4] was “inhibited growth of M. grisea when nitrate, nitrite, or glutamate was provided as the sole nitrogen source; also recorded: Little growth defect was observed when ammonium or glutamine was provided”, the “Growth results for Tiers 3 and 4” value ([4]; 250 μg/ml) was “nearly identical as compared to Unknown 4” and the “Growth inhibition of M. grisea and its remediation” value ([4]; 1.0 mg/ml) was “remediated by inclusion of aromatic amino acids to the media”. The “Regulated metabolites relative to control (in words)” value [2] was “(tyrosine), decreased relative to the control after one hour”, the “Characteristic symptoms” value [3] was “anthocyanin accumulation in the older leaves accompanied by chlorosis of the newly emerging leaves” and the “leafCurling (Dev.)” value [3] was 0. The “leafTwisting (Dev.)” value [3] was 0, the “leafWidth (Dev.)” value [3] was 0 and the “matureLeafAnthocyanins (Dev.)” value [3] was 3. The “matureLeafChlorosis (Dev.)” value [3] was 1, the “matureLeafNecrosis (Dev.)” value [3] was 3 and the “newLeafAnthocyanins (Dev.)” value [3] was 1. For the same compound, the “newLeafChlorosis (Dev.)” value [3] was 2, the “newLeafNecrosis (Dev.)” value [3] was 0 and the “pointedLeaves (Dev.)” value [3] was 1. For the same compound, the “tMic (Dev.)” value [3] was 2.

For CCNc1nc(Cl)nc(NC(C)C)n1 [Atrazine], the “Characteristic symptoms” value [3] was “rapid and widespread leaf necrosis”.

With OC(Cn1cncn1)(Cn1cncn1)c1ccc(F)cc1F [Fluconazole] the “Fold Change, abscisic acid” value ([5]; platform LC) was 0 and the “Fold Change, adenosine” value ([5]; platform LC) was 0.

In the case of CCc1cnc(C2=NC(C)(C(C)C)C(=O)N2)c(C(=O)O)c1 (stereo not shown) [Imazethapyr], the “Characteristic symptoms” value [3] is reported as “anthocyanin accumulation in the older leaves accompanied by chlorosis of the newly emerging leaves”.

In the case of CNc1cnn(-c2cccc(C(F)(F)F)c2)c(=O)c1Cl [Norfluazon, Norflurazon], the “Regulated metabolites relative to control (in words)” value [2] is reported as “Only a few, if any, stress-related metabolites were observed”.

With CSc1nnc(C(C)(C)C)c(=O)n1N [Metribuzin] the “Characteristic symptoms” value [3] was “rapid and widespread leaf necrosis”.

In the case of c1cc[n+]2c(c1)-c1cccc[n+]1CC2 [Diquat], the “Characteristic symptoms” value [3] is reported as “rapid and widespread leaf necrosis”, the “leafCurling (Dev.)” value [3] is reported as 2 and the “leafTwisting (Dev.)” value [3] is reported as 0. The “leafWidth (Dev.)” value [3] was −2, the “matureLeafAnthocyanins (Dev.)” value [3] was 0 and the “matureLeafChlorosis (Dev.)” value [3] was 1. For the same compound, the “matureLeafNecrosis (Dev.)” value [3] was 4, the “newLeafAnthocyanins (Dev.)” value [3] was 0 and the “newLeafChlorosis (Dev.)” value [3] was 1. The “newLeafNecrosis (Dev.)” value [3] was 4, the “pointedLeaves (Dev.)” value [3] was 1 and the “tMic (Dev.)” value [3] was 2.

For CC[C@@H]([C@H](C)O)n1ncn(-c2ccc(N3CCN(c4ccc(OC[C@@H]5CO[C@@](Cn6cncn6)(c6ccc(F)cc6F)C5)cc4)CC3)cc2)c1=O [Posaconazote], the “Fold Change, porphobilinogen” value ([5]; metabolite porphobilinogen, platform nLC, p-Value 1) was 0.

CC(=O)N1CCN(c2ccc(OCC3COC(Cn4ccnc4)(c4ccc(Cl)cc4Cl)O3)cc2)CC1 (stereo not shown) [Ketoconazole] was tested, and the “# Compounds perturbed by treatment” value ([5]; P < 0.1, 2X MIC, two hours) was 15.

With COc1nc(C)nc(NC(=O)NS(=O)(=O)c2ccccc2Cl)n1 [Chlorsulfuron] the “Characteristic symptoms” value [3] was “anthocyanin accumulation in the older leaves accompanied by chlorosis of the newly emerging leaves” and the “No. of Lethal Genes Altered” value ([1]; 1 hr) was 8.

In the case of COC(=O)NS(=O)(=O)c1ccc(N)cc1 [Asulam], the “Gene expression perturbation (in words)” value [1] is reported as “fewest gene expression perturbations” and the “No. of Lethal Genes Altered” value ([1]; 1 hr) is reported as 5.

In the case of COC(=O)c1cc(Oc2ccc(Cl)cc2Cl)ccc1[N+](=O)[O-] [Bifenox], the “Characteristic symptoms” value [3] is reported as “Necrotic leaf flecks”.

CC[C@@H]([C@H](C)O)n1ncn(-c2ccc(N3CCN(c4ccc(OC[C@@H]5CO[C@@](Cn6cncn6)(c6ccc(F)cc6F)C5)cc4)CC3)cc2)c1=O [Posaconazole] was tested, and the “Fold Change, NacetylDglucosamine” value ([5]; metabolite NacetylDglucosamine, platform nLC, p-Value 1) was 0, the “Fold Change, NacetylLglucosamine” value ([5]; metabolite NacetylLglucosamine, platform pLC, p-Value 1) was 0 and the “Fold Change, NacetylLglutamate” value ([5]; metabolite NacetylLglutamate, platform pLC, p-Value 1) was 0. For the same compound, the “Fold Change, NacetylLornithine” value ([5]; metabolite NacetylLornithine, platform nLC, p-Value 1) was 0, the “Fold Change, niacinamide” value ([5]; metabolite niacinamide, platform pLC, p-Value 1) was 0 and the “Fold Change, nopaline” value ([5]; metabolite nopaline, platform pLC, p-Value 1) was 0. The “Fold Change, ornithine3” value ([5]; metabolite ornithine3, platform GC, p-Value 0.965157424) was 0.041, the “Fold Change, orotic acid” value ([5]; metabolite orotic acid, platform nLC, p-Value 1) was 0 and the “Fold Change, phenylpyruvic acid” value ([5]; metabolite phenylpyruvic acid, platform nLC, p-Value 1) was 0. The “Fold Change, phosphoenolpyruvate” value ([5]; platform LC, p-Value 1) was 0, the “Fold Change, phosphoenolpyruvate” value ([5]; platform nLC, p-Value 1) was 0 and the “Fold Change, pinitol” value ([5]; metabolite pinitol, platform nLC, p-Value 1) was 0. The “Fold Change, progesterone” value ([5]; metabolite progesterone, platform pLC, p-Value 1) was 0, the “Fold Change, retinoic acid” value ([5]; metabolite retinoic acid, platform nLC, p-Value 1) was 0 and the “Fold Change, riboflavin” value ([5]; metabolite riboflavin, platform pLC, p-Value 1) was 0. For the same compound, the “Fold Change, salicylic/HObenzoic” value ([5]; metabolite salicylic/HObenzoic, platform nLC, p-Value 1) was 0, the “Fold Change, shikimic acid” value ([5]; metabolite shikimic acid, platform nLC, p-Value 1) was 0 and the “Fold Change, sinapinic acid” value ([5]; metabolite sinapinic acid, platform nLC, p-Value 1) was 0. The “Fold Change, sugar-phosphate” value ([5]; metabolite sugar-phosphate, platform pLC, p-Value 1) was 0, the “Fold Change, thiamine” value ([5]; metabolite thiamine, platform pLC, p-Value 1) was 0 and the “Fold Change, thymine” value ([5]; platform nLC, p-Value 1) was 0. For the same compound, the “Fold Change, thymine” value ([5]; platform pLC, p-Value 1) was 0, the “Fold Change, tryptophan” value ([5]; metabolite tryptophan, platform pLC, p-Value 1) was 0 and the “Fold Change, uric acid” value ([5]; metabolite uric acid, platform pLC, p-Value 1) was 0. For the same compound, the “Fold Change, urocanic acid” value ([5]; platform nLC, p-Value 1) was 0, the “Fold Change, urocanic acid” value ([5]; platform pLC, p-Value 1) was 0 and the “Fold Change, xanthosine(diH2O)” value ([5]; metabolite xanthosine(diH2O), platform pLC, p-Value 1) was 0. For the same compound, the “Fold Change, xanthosineDiH2O” value ([5]; metabolite xanthosineDiH2O, platform nLC, p-Value 1) was 0, the “Fold Change, zeatin” value ([5]; platform nLC, p-Value 1) was 0 and the “Fold Change, zeatin” value ([5]; platform pLC, p-Value 1) was 0.

O=C(O)COc1ccc(Cl)cc1Cl [2,4-D] was tested, and the “leafCurling (Dev.)” value [3] was 1, the “leafTwisting (Dev.)” value [3] was 2 and the “leafWidth (Dev.)” value [3] was −1. For the same compound, the “matureLeafAnthocyanins (Dev.)” value [3] was 1, the “matureLeafChlorosis (Dev.)” value [3] was 2 and the “matureLeafNecrosis (Dev.)” value [3] was 0. For the same compound, the “newLeafAnthocyanins (Dev.)” value [3] was 0, the “newLeafChlorosis (Dev.)” value [3] was 1 and the “newLeafNecrosis (Dev.)” value [3] was 0. For the same compound, the “pointedLeaves (Dev.)” value [3] was 0, the “tMic (Dev.)” value [3] was 2 and the “Symptom Class” value ([3]; three-week-old Arabidopsis plants treated with herbicide) was 5.
